The test system of data set [1] is Staphylococcus aureus. The experiment in a line: Antimicrobial activity against Staphylococcus aureus assessed as microbial growth inhibition. Type of data set: functional.
The subject of data set [2] is Salmonella typhi. The experiment in a line: Antimicrobial activity against Salmonella enterica subsp. enterica serovar Typhi assessed as microbial growth inhibition. Type of data set: functional.
For data set [3], the system named is Pseudomonas aeruginosa. The experiment in a line: Antibacterial activity against Pseudomonas aeruginosa assessed as microbial growth inhibition. Type of data set: functional.
Data set [4] concerns Proteus vulgaris. The experiment in a line: Antimicrobial activity against Proteus vulgaris assessed as microbial growth inhibition. The format is functional.
In data set [5] the test system is Escherichia coli. The experiment in a line: Antimicrobial activity against Escherichia coli assessed as microbial growth inhibition. Type of data set: functional.
Data set [6] deals with Mycobacterium tuberculosis. The experiment in a line: Antimicrobial activity against Mycobacterium tuberculosis H37Rv assessed as microbial growth inhibition. The format is functional.
The subject of data set [7] is Escherichia coli. The experiment in a line: Antimicrobial activity against aroB/fepA/cir negative Escherichia coli H1875 assessed as microbial growth inhibition. Type of data set: functional.
Data set [8] deals with Escherichia coli. The experiment in a line: Antimicrobial activity against aroB/fepA/fiu negative Escherichia coli H1877 assessed as microbial growth inhibition. Type of data set: functional.
Data set [9] deals with Escherichia coli. The experiment in a line: Antimicrobial activity against Escherichia coli MC4100 assessed as microbial growth inhibition. Type of data set: functional.
Data set [10] relates to Escherichia coli. The experiment in a line: Antimicrobial activity against fhuA negative Escherichia coli C600 assessed as microbial growth inhibition. The format is functional.
Data set [11] concerns Escherichia coli. The experiment in a line: Antimicrobial activity against Escherichia coli W3110 assessed as microbial growth inhibition. Type of data set: functional.
For data set [12], the system named is Escherichia coli. The experiment in a line: Antimicrobial activity against pTon positive Escherichia coli W3110-KP1344 harboring pMS7 assessed as microbial growth inhibition. The format is functional.
Data set [13] concerns Escherichia coli. The experiment in a line: Antimicrobial activity against Escherichia coli B assessed as microbial growth inhibition. Type of data set: functional.
The test system of data set [14] is Salmonella enteritidis. The experiment in a line: Antimicrobial activity against Salmonella enterica subsp. enterica serovar Enteritidis assessed as increase in microbial growth inhibition. Type of data set: functional.
The subject of data set [15] is Escherichia coli. The experiment in a line: Antimicrobial activity against exbB/exbD negative Escherichia coli W3110-6 assessed as microbial growth inhibition. The format is functional.
The test system of data set [16] is Escherichia coli. The experiment in a line: Antimicrobial activity against aroB/fepA negative Escherichia coli H873 assessed as microbial growth inhibition. Type of data set: functional.
Data set [17] relates to Escherichia coli. The experiment in a line: Antimicrobial activity against Escherichia coli F assessed as microbial growth inhibition. The format is functional.
Data set [18] has as its system Enterobacter cloacae. The experiment in a line: Antibacterial activity against Enterobacter cloacae. Type of data set: functional.
Data set [19] has as its system Escherichia coli. The experiment in a line: Antimicrobial activity against aroB/cir negative Escherichia coli H2222 assessed as microbial growth inhibition. Type of data set: functional.
Data set [20] concerns Escherichia coli. The experiment in a line: Antimicrobial activity against aroB/cir/fiu negative Escherichia coli H1728 assessed as microbial growth inhibition. Type of data set: functional.
Data set [21] relates to Escherichia coli. The experiment in a line: Antimicrobial activity against aroB/fiu negative Escherichia coli H1594 assessed as microbial growth inhibition. Type of data set: functional.
In data set [22] the test system is Escherichia coli. The experiment in a line: Antimicrobial activity against Escherichia coli C600 harboring pHX405 plasmid assessed as microbial growth inhibition. The format is functional.
Data set [23] concerns Klebsiella pneumoniae. The experiment in a line: Antibacterial activity against Klebsiella pneumoniae assessed as microbial growth inhibition. Type of data set: functional.
The test system of data set [24] is Escherichia coli. The experiment in a line: Antimicrobial activity against aroB negative Escherichia coli H1443 assessed as microbial growth inhibition. Type of data set: functional.
Data set [25] has as its system Escherichia coli. The experiment in a line: Antimicrobial activity against Escherichia coli ML35p assessed as microbial growth inhibition. Type of data set: functional.
For data set [26], the system named is Escherichia coli. The experiment in a line: Antimicrobial activity against Escherichia coli UTI89 expressing TEM-1 assessed as microbial growth inhibition in the presence of bathocuproinedisulfonic acid. The format is functional.
A short description of data set [27]: Cytotoxicity against human CCD 19Lu cells assessed as lethal dose by CellTox Green cytotoxicity assay. The format is toxicity, cell-based. The following applies: read-out: LD50 (the source's name).
Data set [28] concerns Escherichia coli. The experiment in a line: Antibacterial activity against Escherichia coli UTI89 assessed as inhibition of bacterial growth. The format is functional.
Data set [29] deals with Escherichia coli. The experiment in a line: Antimicrobial activity against Escherichia coli UTI89 expressing CTX-M-1 assessed as microbial growth inhibition in the presence of bathocuproinedisulfonic acid. The format is functional.
In data set [30] the test system is Escherichia coli. The experiment in a line: Antimicrobial activity against Escherichia coli UTI89 expressing NDM-1 assessed as microbial growth inhibition in the presence of bathocuproinedisulfonic acid. Type of data set: functional.
Data set [31] concerns Escherichia coli. The experiment in a line: Antimicrobial activity against Escherichia coli UTI89 expressing CMY-2 assessed as microbial growth inhibition in the presence of bathocuproinedisulfonic acid. The format is functional.
In data set [32] the test system is Escherichia coli. The experiment in a line: Antibacterial activity against Escherichia coli MG1655 expressing NDM-1 assessed as inhibition of bacterial growth. Type of data set: functional.
Data set [33] concerns Escherichia coli. The experiment in a line: Antibacterial activity against Escherichia coli UTI89 expressing NDM-1 assessed as inhibition of bacterial growth. The format is functional.
In data set [34] the test system is Escherichia coli. The experiment in a line: Antibacterial activity against Escherichia coli UTI89 expressing CTX-M-1 assessed as inhibition of bacterial growth. The format is functional.
Data set [35] relates to Escherichia coli. The experiment in a line: Antimicrobial activity against Escherichia coli MG1655 expressing CTX-M-1 assessed as microbial growth inhibition in the presence of bathocuproinedisulfonic acid. Type of data set: functional.
The test system of data set [36] is Escherichia coli. The experiment in a line: Antibacterial activity against Escherichia coli MG1655 expressing CTX-M-1 assessed as inhibition of bacterial growth. Type of data set: functional.
Data set [37] has as its system Escherichia coli. The experiment in a line: Antimicrobial activity against Escherichia coli MG1655 expressing CMY-2 assessed as microbial growth inhibition in the presence of bathocuproinedisulfonic acid. Type of data set: functional.
Data set [38] relates to Escherichia coli. The experiment in a line: Antimicrobial activity against Escherichia coli MG1655 expressing NDM-1 assessed as microbial growth inhibition in the presence of bathocuproinedisulfonic acid. The format is functional.
Data set [39] has as its system Escherichia coli. The experiment in a line: Antibacterial activity against Escherichia coli MG1655 expressing CMY-2 assessed as inhibition of bacterial growth. The format is functional.
Data set [40] deals with Escherichia coli. The experiment in a line: Antibacterial activity against Escherichia coli UTI89 expressing CMY-2 assessed as inhibition of bacterial growth. Type of data set: functional.
Data set [41] is described as follows: Cytotoxicity against human HepG2 cells assessed as lethal dose by CellTox Green cytotoxicity assay. As to conditions: read-out: LD50 (the source's name). The format is toxicity, cell-based.
The subject of data set [42] is Escherichia coli. The experiment in a line: Antibacterial activity against Escherichia coli MG1655 assessed as inhibition of bacterial growth. The format is functional.
Data set [43] concerns Escherichia coli. The experiment in a line: Antimicrobial activity against Escherichia coli MG1655 expressing TEM-1 assessed as microbial growth inhibition in the presence of bathocuproinedisulfonic acid. Type of data set: functional.

The structures appear in SMILES notation. Values after ≈ are worked out from the molar mass of the structure shown. *1 amine or outer side, *2 acyl side, *3 side chain or, on linkers, in order; H or OH if unused. Where a SMILES comes first, the peptide text is derived from it. [ ]: non-standard residue; d: D form. X1 = Cn1c(=N)ccn([C@@H]2S[C@H]([C@@H](O)[C@@H](N[*:1])C(=O)[*:2])[C@H](O)[C@H]2O)c1=O; Orn(N5-OH,N5-Ac) = CC(=O)N(O)CCC[C@H](N)C(=O)O

On to `O=c1[nH]c2ccccc2[nH]/c1=N/N[C@@H]1O[C@H](CO)[C@@H](O)[C@H]1O`, for which the MIC in data set [1] worked out at 2.07 µM (≈ 0.638 µg/mL); in data set [2], 7.8 µM (≈ 2.4 µg/mL); in data set [3], 2.07 µM (≈ 0.638 µg/mL); in [4] it was 2.07 µM (≈ 0.638 µg/mL); in data set [5], 2.07 µM (≈ 0.638 µg/mL); in data set [6], 0.65 µM (≈ 0.2 µg/mL).

Regarding `CC(=O)N(O)CCC[C@H](NC(=O)[C@H](CCCN(O)C(C)=O)NC(=O)[C@@H](N)CCCN(O)C(C)=O)C(=O)N[C@@H](CO)C(=O)N[C@@H](C(=O)O)[C@H](O)[C@H]1S[C@@H](n2ccc(=N)n(C)c2=O)[C@H](O)[C@H]1O` (H-[Orn(N5-OH,N5-Ac)][Orn(N5-OH,N5-Ac)][Orn(N5-OH,N5-Ac)]S[X1]-OH), the MIC in data set [7], in [8], in data set [9], in data set [10], in data set [11] and in [12] was 0.04 µM (≈ 0.038 µg/mL) each time. The MIC in data set [13] turned out to be 0.04 µM (≈ 0.038 µg/mL); in data set [14], 0.04 µM; in data set [15] it was 0.04 µM (≈ 0.038 µg/mL); in data set [16] it was 0.04 µM (≈ 0.038 µg/mL); in data set [17] it was 0.04 µM (≈ 0.038 µg/mL); in data set [18], 0.04 µM (≈ 0.038 µg/mL). For the same compound, the MIC in [19], in data set [20], in data set [21], in data set [22], in [23] and in [24] was 0.04 µM (≈ 0.038 µg/mL) in each case. Further, in data set [25], the minimum inhibitory concentration (MIC) turned out to be 0.04 µM (≈ 0.038 µg/mL).

On to `O=C(Cc1ccccc1)N[C@@H]1C(=O)N2C(C(=O)O)=C(CSc3ccccn3)CS[C@H]12`, for which the MIC in [26] was above 140 µM; in data set [28] it was 35 µM (≈ 15.5 µg/mL); in data set [29], above 140 µM; in data set [30] it was above 140 µM; in [31], above 140 µM; in data set [32] it was 17.5 µM (≈ 7.73 µg/mL). Besides, the MIC in [33] is 17.5 µM (≈ 7.73 µg/mL); in data set [34] it was 17.5 µM (≈ 7.73 µg/mL); in data set [35], above 140 µM; in [36], 17.5 µM (≈ 7.73 µg/mL); in data set [37], above 140 µM; in data set [38], above 140 µM. The MIC in data set [39] is 17.5 µM (≈ 7.73 µg/mL); in data set [40], 17.5 µM (≈ 7.73 µg/mL); in [42], 35 µM (≈ 15.5 µg/mL); in data set [43], above 140 µM. The CC50 in [27] and in [41] was above 500 µM throughout.

These data come from ChEMBL document CHEMBL5338723, “Emerging Target-Directed Approaches for the Treatment and Diagnosis of Microbial Infections” (J Med Chem, 2023).
